Data set [1] deals with bovine retinal microvascular endothelial cells (BREC). Kind of data set: BREC proliferation assay. The format is cell-based. As to conditions: bovine retinal EC. The protocol:
(§1) Proliferation assays with BCECs and BRECs were performed. Log-phase growing BCECs or BRECs (passage <10) were trypsinized, re-suspended and seeded in 96-well plates (no coating) in low-glucose DMEM supplemented with 10% bovine calf serum, 2 mM glutamine, and antibiotics (growth medium), at a density of 1200-1500 cells per well in 200 μl volume. All reagents were added at the indicated final concentrations. After 3-6 days, cells were incubated with AlamarBlue for 4 hrs. Fluorescence was measured at 530 nm excitation wavelength and 590 nm emission wavelength. The experiments were repeated at least three times. To create a hypoxic condition, cells were placed in a hypoxia incubator with a mixture of gas consisting of 1% O2, 5% CO2 and 94% N2. On each 96-well plate, untreated and VEGF-treated (10/ng/ml) wells were included to monitor plate-to-plate variations. 20% methanol or 0.05% DMSO served as negative controls. […] Human RMVECs and human adult DMVECs were split into Gelatin-coated 96 wells (2000 cells per well) in low glucose DMEM containing 10% FBS. 1200 cells/well was set up for proliferation assay in low glucose media containing 0.5% FBS. Data was collected at day 4 or 5. HUVEC (p7-10) were grown on gelatin-coated plate until it reached 70-80% confluency.

Data set [2] deals with dermal microvascular endothelial cells (hDMVECs). The data set is described as follows: hDMVEC proliferation assay. The format is cell-based, human. The protocol:
as §1
(§2) Proliferation assays with fibroblasts were done in low-glucose DMEM containing 1% FBS, with or without 10 ng/ml bFGF, or 100 ng/ml human EGF and the assay was ended at day 3. ARPE-19 cells were gently lifted with 0.025% trypsin and plated in RtEGM media (Clonetics) containing 2% FBS, L-glutamine, human bFGF and GA-1000. Once cells were attached to plates, serum-free RtEGM media was used to maintain the cultures. For proliferation assays, 1500 human RPE cells were plated into 96-well plates in low-glucose DMEM containing 1% FBS. A673, U87MG, Calu6 and AML12 cells were grown until confluent and were then harvested and re-suspended in appropriate assay media. […] Four days later, tumor cell growth was measured by the MTS assay (Promega, Madison, WI), a colorimetric assay that measures metabolic activity of viable cells. […]

A further data set concerns BCECs. The data set is described as follows: Cellular uptake of ManN and conversion to ManN-6P (HPAEC-PAD). The format is in vitro ADME, bovine.
A further data set concerns AML12 liver cells. The data set is described as follows: AML12 proliferation assay. The format is cell-based, mouse. The protocol: as §2, with “media. For proliferation assays, cells were plated at the density of 1000-2000 cells/well in low-glucose DMEM containing 5% FBS or otherwise stated. Bovine pituitary cells (pituitary folliculostellate cells) were isolated as previously described. For proliferation assays with human epidermal keratinocytes, human DMVECs and human dermal fibroblast cells, 1000 cells/well were plated in low-glucose DMEM containing 1% FBS with or without various growth factors. The assay was ended at day 3 for bovine pituitary cells and at day 4 for all the other cell types.” for “media.”

The subject of another data set is ARPE-19 RPE cells. Kind of data set: Human RPE proliferation assay. The format is cell-based. The protocol: as §2, with “media. For proliferation assays, cells were plated at the density of 1000-2000 cells/well in low-glucose DMEM containing 5% FBS or otherwise stated. Bovine pituitary cells (pituitary folliculostellate cells) were isolated as previously described. For proliferation assays with human epidermal keratinocytes, human DMVECs and human dermal fibroblast cells, 1000 cells/well were plated in low-glucose DMEM containing 1% FBS with or without various growth factors. The assay was ended at day 3 for bovine pituitary cells and at day 4 for all the other cell types.” for “media.”

Data set [3] relates to vascular permeability in guinea pig skin. The data set is described as follows: Vascular permeability assay (modified Miles assay). The format is in vivo. As to conditions: ManN 1 ng-5 μg, VEGF 25 ng, intradermal. The protocol:
Vascular permeability was assessed using a modified Miles assay. Hairless male guinea pigs (Crl: HA-Hrhr/IAF, 75 days old, 450-500 g, Charles River Laboratories) were anesthetized by intraperitoneal (i.p.) administration of xylazine (5 mg/kg) and ketamine (75 mg/kg). The animals then received an intravenous injection (penile vein) of 1 ml of 1% Evans blue dye. After 15 mins, intradermal injections (0.05 ml/per site) of different doses of ManN were administrated into the area of trunk posterior to the shoulder. All reagents were diluted in PBS for intradermal administration. 25 ng of VEGF165 per site was used as positive control. 30 mins after the intradermal injections, animals were euthanized by i.p. injection of pentobarbital (200 mg/kg). Skin tissues were dissected from the connective tissues and photographed.

A further data set has as its system ERK and AKT. Kind of data set: Western blot of ERK and AKT activation in HUVEC and hDMVECs. It counts as cell-based, human. Particulars: 40 μM. The protocol:
Cells were allowed to reach-80% confluency in 12-well plates. […] At various time points, plates were taken out of the incubator and kept on ice. Cell monolayers were first washed once with ice-cold PBS before lysis with 250 μI of Pierce RIPA buffer (ThermoFisher Scientific, Rockford, IL) or use 50 mM Tris-HCl (pH 7.6), 150 mM NaCl, 10% Glycerol, 1% NP-40 containing protease/Phosphatase inhibitor cocktail (100×) (Cell signaling, #5872). Lysates were collected and mixed with 4× Bolt LDS Sample Buffer (Novex, Carlsbad, CA) in the presence of Halt protease inhibitors and phosphatase inhibitor cocktail (ThermoFisher scientific, #NP0007). The samples were subjected to SDS-PAGE (Bolt 4-12% Bis-Tris Plus, Invitrogen) using Bolt MES SDS running buffer or NuPAGE 3-8% Tris-Acetate gel using Tris-Acetate SDS running buffer (Novex). HUVECs (passage 6-8) were plated in EBM-2 basal medium (Lonza) with 0.2% FBS. Following overnight culture, cells were serum-starved in EBM-2 medium for 4 hrs prior to treatment with 50 ng/ml of VEGF165 or vehicle controls for various lengths. Equal amounts of protein lysates were analyzed by SDS-PAGE and blotted with the indicated antibodies. Proteins were transferred using Tris-Glycine buffer with 20% Methanol (Proteonomics grade) (Apex BioResearch Products). […]
A general note: A western blot detects proteins with antibodies after separation by electrophoresis.

The mark [4] stands for this setting: alone or in combination with growth factors.

In the case of `N[C@H](C=O)[C@@H](O)[C@H](O)[C@H](O)CO` [ManN, 2-Amino-2-deoxy-D-mannose], the “additive effects in promoting BREC proliferation” value in data set [1] is recorded as “Additive effects”. The “toxicity on hDMVECs” value in data set [2] (5 mM ManN) is on record as “minimal toxicity”. For the same compound, the “hDMVECs growth, ManN by itself” value in data set [2] (ManN alone) was “stimulated”. Besides, the “additivity with VEGF on hDMVEC proliferation” value in data set [2] (with VEGF) is given as “dose-dependent additivity with VEGF”. The “incorporation of ManN in N-glycans” value in the data set with BCECs (BCECs) is on record as “No incorporation”. Further, the “ManN detected in cell lysate” value in the data set on BCECs (BCECs treated with 400 μM ManN for 2 hours) turned out to be 0.66 nmol in 1 mg cell lysate. In the data set with AML12 liver cells (5 mM level of ManN), the “sensitivity of AML12 to ManN toxicity” value was “most sensitive one”. Besides, the “proliferation of AML12” value in the data set on AML12 liver cells (setting [4]) is on record as “no increases in proliferation”. The “sensitivity of human RPE cells to ManN toxicity” value in the data set on ARPE-19 RPE cells (5 mM level of ManN) is reported as “least sensitive ones”. Besides, in the data set on ARPE-19 RPE cells (setting [4]), the “proliferation of human RPEs” value is on record as “no increases in proliferation”. Besides, the “induction of vascular permeability” value in data set [3] is recorded as “no permeability-enhancing effects”.

With `O=C1N[C@@H]2[C@@H](O)[C@@H](O)[C@H](O)[C@@H](CO)N2C1=O` [Kif, Kifunensine, reference compound], the “activation of ERK and AKT in human ECs by glycosylation inhibitors” value in the data set on ERK and AKT is “significantly activate ERK and AKT”.

These data come from patent publication US20250275993A1, “GLYCOSYLATION INHIBITORS AS THERAPEUTICS FOR STROKE” (The Regents of the University of California, priority 2022, published 2025).
